Assay results taken from PubChem BioAssay (NCI).
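Where inhibition never reached the appropriate level, the endpoint shown equals the highest concentration tested. Otherwise, values were interpolated linearly from a five-concentration, 48-hour dose response in 96-well plates. TGI: total growth inhibition.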

How the values were obtained:
Test in all cases: NCI-60 cell line screen, 48 h
[1] = tested on: 786-0 renal
[2] = tested on: A498 renal
[3] = tested on: A549 NSCLC
[4] = tested on: ACHN renal
[5] = tested on: BT-549 breast
[6] = tested on: CAKI-1 renal
[7] = tested on: CCRF-CEM leukemia
[8] = tested on: COLO 205 colon
[9] = tested on: DU-145 prostate
[10] = tested on: EKVX NSCLC
[11] = tested on: HCC-2998 colon
[12] = tested on: HCT-116 colon
[13] = tested on: HCT-15 colon
[14] = tested on: HL-60(TB) leukemia
[15] = tested on: HOP-62 NSCLC
[16] = tested on: HOP-92 NSCLC
[17] = tested on: HS 578T breast
[18] = tested on: HT29 colon
[19] = tested on: IGROV1 ovarian
[20] = tested on: K-562 leukemia
[21] = tested on: KM12 colon
[22] = tested on: M14 melanoma
[23] = tested on: MALME-3M melanoma
[24] = tested on: MCF7 breast
[25] = tested on: MDA-MB-435
[26] = tested on: MDA-N
[27] = tested on: MOLT-4 leukemia
[28] = tested on: NCI-H226 lung
[29] = tested on: NCI-H23 lung
[30] = tested on: NCI-H460 lung
[31] = tested on: NCI-H522 lung
[32] = tested on: NCI/ADR-RES ovarian
[33] = tested on: OVCAR-3 ovarian
[34] = tested on: OVCAR-4 ovarian
[35] = tested on: OVCAR-5 ovarian
[36] = tested on: OVCAR-8 ovarian
[37] = tested on: PC-3 prostate
[38] = tested on: RPMI-8226 leukemia
[39] = tested on: RXF 393 renal
[40] = tested on: SF-268 CNS
[41] = tested on: SF-295 CNS
[42] = tested on: SF-539 CNS
[43] = tested on: SK-MEL-2 melanoma
[44] = tested on: SK-MEL-28 melanoma
[45] = tested on: SK-MEL-5 melanoma
[46] = tested on: SK-OV-3 ovarian
[47] = tested on: SN12C renal
[48] = tested on: SNB-19 CNS
[49] = tested on: SNB-75 CNS
[50] = tested on: SR leukemia
[51] = tested on: SW-620 colon
[52] = tested on: T-47D breast
[53] = tested on: TK-10 renal
[54] = tested on: U251 CNS
[55] = tested on: UACC-257 melanoma
[56] = tested on: UACC-62 melanoma
[57] = tested on: UO-31 renal
[58] = tested on: LOX IMVI melanoma
[59] = tested on: MDA-MB-231 breast

Compound: COC(=O)[C@@]12CSC[C@]1(C(=O)OC)N[C@@H](c1ccccc1O)C2
- TGI [1]: > 100 µM
- TGI [2]: > 100 µM
- TGI [3]: > 100 µM
- TGI [4]: > 100 µM
- TGI [5]: > 100 µM
- TGI [6]: > 100 µM
- TGI [7]: > 100 µM
- TGI [8]: > 100 µM
- TGI [9]: > 100 µM
- TGI [10]: > 100 µM
- TGI [11]: > 100 µM
- TGI [12]: > 100 µM
- TGI [13]: > 100 µM
- TGI [14]: > 100 µM
- TGI [15]: > 100 µM
- TGI [16]: > 100 µM
- TGI [17]: > 100 µM
- TGI [18]: > 100 µM
- TGI [19]: > 100 µM
- TGI [20]: > 100 µM
- TGI [21]: > 100 µM
- TGI [22]: > 100 µM
- TGI [23]: > 100 µM
- TGI [24]: > 100 µM
- TGI [25]: > 100 µM
- TGI [26]: > 100 µM
- TGI [27]: > 100 µM
- TGI [28]: > 100 µM
- TGI [29]: > 100 µM
- TGI [30]: > 100 µM
- TGI [31]: > 100 µM
- TGI [32]: > 100 µM
- TGI [33]: > 100 µM
- TGI [34]: > 100 µM
- TGI [35]: > 100 µM
- TGI [36]: > 100 µM
- TGI [37]: > 100 µM
- TGI [38]: > 100 µM
- TGI [39]: > 100 µM
- TGI [40]: > 100 µM
- TGI [41]: > 100 µM
- TGI [42]: > 100 µM
- TGI [43]: > 100 µM
- TGI [44]: > 100 µM
- TGI [45]: > 100 µM
- TGI [46]: > 100 µM
- TGI [47]: > 100 µM
- TGI [48]: > 100 µM
- TGI [49]: > 100 µM
- TGI [50]: > 100 µM
- TGI [51]: > 100 µM
- TGI [52]: > 100 µM
- TGI [53]: > 100 µM
- TGI [54]: > 100 µM
- TGI [55]: > 100 µM
- TGI [56]: > 100 µM
- TGI [57]: > 100 µM

Compound: Cc1cc(C)c2c(=N)c3ccccc3n(CCCCCCCCn3c4ccccc4c(=N)c4c(C)cc(C)nc43)c2n1
- TGI [1]: 2.28 µM
- TGI [2]: 2.94 µM
- TGI [4]: 2.91 µM
- TGI [5]: 3.29 µM
- TGI [6]: 3.45 µM
- TGI [9]: 3.07 µM
- TGI [10]: 2.91 µM
- TGI [12]: 1.59 µM
- TGI [16]: 2.87 µM
- TGI [18]: 1.16 µM
- TGI [19]: 2.71 µM
- TGI [20]: > 100 µM
- TGI [21]: 1.42 µM
- TGI [58]: 2.61 µM
- TGI [22]: 3.09 µM
- TGI [23]: 3.11 µM
- TGI [26]: 2.78 µM
- TGI [28]: 3.38 µM
- TGI [33]: 3.27 µM
- TGI [35]: 3.69 µM
- TGI [36]: 3.05 µM
- TGI [37]: 2.86 µM
- TGI [43]: 3.03 µM
- TGI [44]: 3.02 µM
- TGI [45]: 3.23 µM
- TGI [46]: 3.18 µM
- TGI [47]: 2.94 µM
- TGI [48]: 1.85 µM
- TGI [49]: 2.18 µM
- TGI [52]: 3.23 µM
- TGI [53]: 4.72 µM
- TGI [55]: 3.01 µM
- TGI [57]: 2.81 µM

Compound: CS(=O)(=O)OCCN(CCOS(C)(=O)=O)c1ccc(C=Nc2ccc(-c3csc(Cc4ccccc4)n3)cc2)c(Cl)c1
- TGI [1]: > 68.3 µM
- TGI [2]: 0.321 µM
- TGI [3]: > 83.7 µM
- TGI [4]: > 84 µM
- TGI [6]: 13.5 µM
- TGI [7]: > 61.2 µM
- TGI [8]: 36 µM
- TGI [9]: > 86.5 µM
- TGI [10]: > 100 µM
- TGI [11]: 35.1 µM
- TGI [12]: 57.1 µM
- TGI [13]: > 87.8 µM
- TGI [14]: 35.7 µM
- TGI [15]: > 55.5 µM
- TGI [16]: 46.5 µM
- TGI [17]: 76.7 µM
- TGI [18]: 64.5 µM
- TGI [19]: > 74.2 µM
- TGI [20]: 76.9 µM
- TGI [21]: > 63.9 µM
- TGI [58]: > 57.3 µM
- TGI [22]: > 62.7 µM
- TGI [23]: > 72.8 µM
- TGI [24]: 50.1 µM
- TGI [59]: 75.6 µM
- TGI [25]: > 78.2 µM
- TGI [26]: > 76.3 µM
- TGI [27]: > 87.9 µM
- TGI [28]: 1.79 µM
- TGI [29]: 70.6 µM
- TGI [30]: 43.4 µM
- TGI [31]: > 76 µM
- TGI [32]: > 70 µM
- TGI [33]: > 63.7 µM
- TGI [34]: > 100 µM
- TGI [35]: 99.1 µM
- TGI [36]: > 66 µM
- TGI [37]: > 79.8 µM
- TGI [38]: > 100 µM
- TGI [39]: 98.6 µM
- TGI [40]: > 100 µM
- TGI [41]: > 86.3 µM
- TGI [42]: > 59.6 µM
- TGI [43]: > 67.9 µM
- TGI [44]: > 100 µM
- TGI [45]: 40.2 µM
- TGI [46]: > 77.7 µM
- TGI [47]: > 100 µM
- TGI [48]: > 89.6 µM
- TGI [49]: > 68.1 µM
- TGI [50]: 74.3 µM
- TGI [51]: > 100 µM
- TGI [52]: > 84.2 µM
- TGI [53]: > 100 µM
- TGI [54]: > 83.3 µM
- TGI [55]: 17.8 µM
- TGI [56]: > 47.7 µM
- TGI [57]: > 85.8 µM

Compound: CCN(CC)CCC(=O)/C=C/c1ccc(Cl)c(Cl)c1
- TGI [1]: > 10 µM
- TGI [3]: > 10 µM
- TGI [4]: > 10 µM
- TGI [5]: > 10 µM
- TGI [7]: 7.18 µM
- TGI [8]: > 10 µM
- TGI [9]: > 10 µM
- TGI [10]: > 10 µM
- TGI [11]: > 10 µM
- TGI [12]: 3.74 µM
- TGI [13]: > 10 µM
- TGI [14]: 1.76 µM
- TGI [15]: > 10 µM
- TGI [16]: > 10 µM
- TGI [20]: > 10 µM
- TGI [21]: > 10 µM
- TGI [22]: > 10 µM
- TGI [23]: > 10 µM
- TGI [24]: > 10 µM
- TGI [59]: > 10 µM
- TGI [25]: > 10 µM
- TGI [26]: > 10 µM
- TGI [27]: > 10 µM
- TGI [28]: > 10 µM
- TGI [29]: > 10 µM
- TGI [30]: > 10 µM
- TGI [31]: 3.54 µM
- TGI [32]: 4.66 µM
- TGI [33]: > 10 µM
- TGI [34]: > 10 µM
- TGI [35]: > 10 µM
- TGI [36]: > 10 µM
- TGI [37]: > 10 µM
- TGI [38]: 0.603 µM
- TGI [40]: > 10 µM
- TGI [41]: > 10 µM
- TGI [43]: > 10 µM
- TGI [47]: 4.24 µM
- TGI [48]: > 10 µM
- TGI [50]: 9.43 µM
- TGI [51]: 5.63 µM
- TGI [52]: 5.86 µM
- TGI [53]: 9.98 µM
- TGI [54]: > 10 µM
- TGI [55]: > 10 µM
